The values that follow come from US6846636B1, “Methods and compositions for HDL holoparticle uptake receptor” (American National Red Cross, priority 1998, dated 2005).

Entries after “also recorded” stand apart in the source; their conditions may differ.

Assay [1] has as its system RA/Bt2cAMP-treated F9 cells. Put plainly: [125I]-HDL internalization and degradation assay. The assay is classed as cell-based, mouse. As to conditions: [125I]-HDL 2 μg/ml, 6.5 h at 37° C.; unlabeled HDL 80 μg/ml, RAP 1 μM, chloroquine 50 μM, anti-cubilin IgG 150 μg/ml. The method, then:
HDL internalization and degradation assays were performed in a manner similar to LDL and apolipoprotein J internalization and degradation assays described previously (Stefansson et al., 1995; Kounnas et al., 1995). ApoE-free HDL (HDL3) was labeled with [^125I]-iodine using the iodine monochloride method (Goldstein et al., 1983). RA/Bt2cAMP-treated and -untreated F9 cells were seeded onto gelatin-coated 3.83 cm^2 wells (Corning, Corning, N.Y.) at 1.5-1.75×10^5 cells/well and allowed to grow for 18 h at 37° C., 5% CO2. Prior to the addition of [^125I]-HDL, the cells were washed with serum-free DMEM and incubated in the assay medium (DMEM, 20 mM HEPES, ITS, penicillin/streptomycin, and 1.5% BSA) containing unlabeled HDL3 (80 μg/ml), RAP (1 μM), chloroquine (50 μM) (Sigma) or BSA (10 μM) and incubated for 0.5 hours at 37° C., 5% CO2. The medium was then removed and [^125I]-HDL3 (2 μg/ml) in serum-free medium or in serum-free medium containing unlabeled HDL3 (80 μg/ml), RAP (1 μM), chloroquine (50 μM) or BSA (10 μM) was added and incubated with the cells for 6.5 h at 37° C., 5% CO2. The conditioned culture medium was treated with trichloroacetic acid (final concentration 10%) and centrifuged at 10,000×g for 10 min. The amount of radioactivity present in the supernatant was taken to represent the amount of degraded HDL (Goldstein and Brown, 1974). […] The released cells were pelleted by centrifugation at 1,000×g for 15 min and the amount of radioactivity in the cell pellet measured.
HDL internalization and degradation assays were performed as described previously for LDL and apolipoprotein J (Hammad et al., 1997; Kounnas et al., 1995; Stefansson et al., 1995a). […] The amount of radioactivity in the supernatant was taken to represent the amount of degraded HDL (Goldstein and Brown, 1974). […] The released cells were pelleted by centrifugation at 1,000×g for 15 min and the amount of radioactivity in the cell pellet was measured and taken to represent the amount of internalized HDL.

Assay [2] relates to RA/Bt2cAMP-treated F9 cells. Put plainly: DiI-HDL uptake by fluorescence-activated cell (FAC) scanning. The assay is classed as cell-based, mouse. As to conditions: DiI-HDL 1 μg/ml, 37° C., competitors preincubated, apolipoproteins and RAP 1 μM, apoE 0.25 μM, heparin 80 μM, IgGs 200 μg/ml, heparinase I 10 U/ml. As to the method:
Untreated and RA/Bt2cAMP-treated F9 cells (1-1.5×10^5 cells/cm^2) were grown for 18 hours in serum-free medium (DMEM, ITS, penicillin, and streptomycin). After washing the cell layers with the same serum-free medium, apoE-free DiI-HDL was added to a final concentration of 1 μg/ml and incubated for 1-2 hours at 37° C., 5% CO2. For competition experiments, competitors were added in serum-free medium and incubated for 0.5 hours at 37° C., 5% CO2 prior to the addition of the DiI-HDL. After the incubation, the medium was removed, cell layers washed with serum-free medium and the cells released with a 0.5 mg/ml trypsin-0.53 mM EDTA solution (Mediatech). The cells were then pelleted by centrifugation at 180×g and resuspended in DMEM. Twice more, the cells were pelleted by centrifugation at 180×g, and resuspended in dPBS. The cells were then subjected to FAC sorting on a FACStarplus instrument (Becton Dickinson, San Jose, Calif.).
RA/Bt2cAMP-treated and -untreated F9 cells (1-1.5×10^5 cclls/cm^2) were grown for 18 h in SFM. After washing the cell layers with SFM, DiI-HDL or DIO-LDL was added to a final concentration of 1 μg/ml and incubated for 2 h at 37° C., 5% CO2. For competition experiments, competitors (HDL, HDL2, HDL3 and their corresponding apoE-free forms), LDL, oxidized LDL, VLDL, §-VLDL, Lp(a) ([…]), apoA-I (28.3 μg/ml, 1 μM), apoA-II (I 7.3 μg/ml, 1 μM), apoC-I (6.6 μg/ml, 1 μM), apoC-III (8.8 μg/ml, 1 μM), apoJ (70 μg/ml, 1 μM), ovalbumin (45 μg/ml, 1 μM), RAP (39 μg/ml, 1 μM), apoE (8.5 μg/ml, 0.25 μM), heparin (80 μM, 250 U/ml) or IgGs (200 μg/ml) were added in SFM and incubated for 45 min at 37° C., 5% CO2 prior to the addition of the fluorescent lipoproteins. After the incubation, the medium was removed, cell layers were washed with SFM and the cells were released with trypsin-EDTA-proteinase K. The cells were washed once with DMEM, twice with dPBS, then subjected to FAC scanning on a FACStar Plus instrument (Becton Dickinson, San Jose, Calif.). Plotted data are from gated cells having fluorescence intensity values greater than the autofluorescence values of 99% of unlabeled cells. For some experiments, cell layers were treated with hepaninase I (10 U/ml) for 2 h prior to the addition of the DiI-HDL.

For assay [3], the system named is RA/Bt2cAMP-treated F9 cells. Put plainly: Cell layer-associated [35S]-sulfate after heparinase I treatment. In kind it is cell-based, mouse. As to conditions: heparinase I 10 U/ml for 2 h; relative to controls.
Assay [4] concerns visceral yolk sac endoderm. Put plainly: DiI-HDL uptake by mouse embryo yolk sac (ex utero culture, confocal microscopy). As to conditions: ± S.D.; DiI-HDL 1 μg/ml 1 h; RAP, ovalbumin 1 μM; IgGs 400 μg/ml; p<0.01 vs control. The method, then:
Embryos (8-8.5 days post-conception) were removed from timed pregnant ICR mice (Harlan Sprague Dawley, Inc.) so as to leave visceral yolk sac endoderm intact and placed in DMEM. The embryos were then incubated in DMEM containing RAP (1 μM), ovalbumin (1 μM), rabbit anti-cubilin IgG (400 μg/ml) or normal rabbit IgG (400 μg/ml) for 0.5 h at 37° C., 5% CO2. DiI-HDL was added to a final concentration of (1 μg/ml) and incubated for 1 h at 37° C., 5% CO2. The medium was removed and the embryos gently washed with dPBS and fixed with 3% paraformaldehyde for 15 min. The fixed embryos were placed in dPBS, 0.1% azide in a well slide and examined by laser scanning confocal microscopy. The intensity of yolk sac fluorescence in mouse embryos incubated with DiI-HDL in the presence of either RAP, ovalbumin, anti-cubilin IgG or control IgG was evaluated by seven people in a double blinded fashion. The assessments of relative intensity were analyzed by a nonparametric statistical test using RANK and ANOVA procedures (SAS Institute, Inc., Cary, N.C.).

`CCN(CC)CCCC(C)Nc1ccnc2cc(Cl)ccc12` (centres unmarked) [chloroquine, reference compound]: the “degradation of [125I]-HDL” value in assay [1] is recorded as “effectively block the degradation”.
Regarding “ApoAII: Human apolipoprotein, major apolipoprotein component of HDL”, the “DiI-HDL uptake in presence of competitor” value in assay [2] is on record as “inhibit HDL uptake”; in assay [2] (listed as apoA-E), “competed effectively”.
ApoE2: apolipoprotein component of HDL: in assay [2], the “DiI-HDL uptake in presence of competitor” value is recorded as “inhibit HDL uptake”.
Aprotinin [reference compound]: in assay [2], the “DiI-HDL uptake in presence of competitor” value is recorded as “inability of these ligands to block HDL uptake”.
Turning to Fucoidan [reference compound], the “DiI-HDL uptake in presence of competitor” value in assay [2] is on record as “inability of these ligands to block HDL uptake”.
In the case of “apoA-I: Human apolipoprotein, major apolipoprotein component of HDL”, the “DiI-HDL uptake in presence of competitor” value in assay [2] is given as “competed effectively”; in assay [2] (listed as ApoAI) it was “inhibit HDL uptake”.
As to “apoC-1: Human apolipoprotein (TPDVSSALDKLKEFGNTLEDKARELISRIKQSELSAKMREWFSETFQKVKEKLKIDS; UniProt P02654 27-83, looked up)”, the “DiI-HDL uptake in presence of competitor” value in assay [2] is “little or no ability to compete”.
On to apoC-III: Human apolipoprotein, for which the “DiI-HDL uptake in presence of competitor” value in assay [2] is recorded as “little or no ability to compete”.
The same measure, in the same setting: in the case of “apoE: Human apoE3 purchased from Calbiochem” it was “competed effectively”; in that of apoj: apolipoprotein J from Quidel, “little or no ability to compete”; in that of heparin [reference compound], “Neither heparin nor heparinase I pretreatment of RA/Bt2cAMP-differentiated F9 cells inhibited DiI-HDL uptake; also recorded: did not block HDL uptake”.
Consider heparinase I [reference compound], for which the figures for the “DiI-HDL uptake in presence of competitor” value in assay [2] and in assay [2] (listed as heparinase) were “Neither heparin nor heparinase I pretreatment of RA/Bt2cAMP-differentiated F9 cells inhibited DiI-HDL uptake” and “did not block HDL uptake”, respectively. The “reduction of cell layer-associated [35S]-sulfate” value in assay [3] turned out to be 50%.

B1: ovalbumin: control protein (protein, UniProt P01012 2-386, looked up)
Ovalbumin: GSIGAASMEFCFDVFKELKVHHANENIFYCPIAIMSALAMVYLGAKDSTRTQINKVVRFDKLPGFGDSIEAQCGTSVNVHSSLRDILNQITKPNDVYSFSLASRLYAEERYPILPEYLQCVKELYRGGLEPINFQTAADQARELINSWVESQTNGIIRNVLQPSSVDSQTAMVLVNAIVFKGLWEKAFKDEDTQAMPFRVTEQESKPVQMMYQIGLFRVASMASEKMKILELPFASGTMSMLVLLPDEVSGLEQLESIINFEKLTEWTSSNVMEERKIKVYLPRMKMEEKYNLTSVLMAMGITDVFSSSANLSGISSAESLKISQAVHAAHAEINEAGREVVGSAEAGVDAASVSEEFRADHPFLFCIKHIATNAVLFFGRCVSP
For the molecule B1, the “fluorescence intensity RANK score of DiI-HDL incorporation into extraembryonic endoderm” value in assay [4] is reported as 4.16±0.15.
